Measurements taken from ChEMBL document CHEMBL3739316, “Novel orally active inhibitors of β-1,3-glucan synthesis derived from enfumafungin” (Bioorg Med Chem Lett, 2015).
≈ marks a conversion by molar mass, not a printed value.

Columns and labels:
Beta-1,3-glucan synthase = target: T1, Beta-1,3-glucan synthase (Candida albicans, UniProt O13383); assay: Displacement of UDP-[3H]glucose from beta-1,3-glucan synthase in Candida albicans MY1055 microsomal membranes incubated for 2 hrs
T1 sequence (O13383 whole entry): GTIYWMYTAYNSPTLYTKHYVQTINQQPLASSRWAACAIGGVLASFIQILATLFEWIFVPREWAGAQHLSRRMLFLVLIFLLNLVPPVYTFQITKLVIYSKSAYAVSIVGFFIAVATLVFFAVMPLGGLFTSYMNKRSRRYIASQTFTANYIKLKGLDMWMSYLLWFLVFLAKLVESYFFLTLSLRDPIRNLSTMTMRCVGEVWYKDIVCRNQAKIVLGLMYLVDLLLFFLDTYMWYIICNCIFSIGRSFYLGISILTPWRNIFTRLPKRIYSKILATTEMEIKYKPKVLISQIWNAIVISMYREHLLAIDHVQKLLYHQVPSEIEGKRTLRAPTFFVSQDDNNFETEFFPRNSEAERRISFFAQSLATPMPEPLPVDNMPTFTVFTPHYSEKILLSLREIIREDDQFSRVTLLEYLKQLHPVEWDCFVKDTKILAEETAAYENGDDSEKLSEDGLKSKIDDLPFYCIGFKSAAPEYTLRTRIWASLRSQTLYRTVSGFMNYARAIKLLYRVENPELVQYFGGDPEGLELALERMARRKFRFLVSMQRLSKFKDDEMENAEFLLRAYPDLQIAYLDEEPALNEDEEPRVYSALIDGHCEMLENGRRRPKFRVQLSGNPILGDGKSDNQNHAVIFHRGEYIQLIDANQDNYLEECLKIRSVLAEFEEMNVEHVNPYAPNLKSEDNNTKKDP

Candida albicans [1] = assay: Antifungal activity against Candida albicans MY1055 after 24 hrs by liquid microdilution assay; format: functional; details: MY1055, 24 h
Aspergillus fumigatus = assay: Antifungal activity against Aspergillus fumigatus MF5668 after 24 hrs by liquid microdilution assay; format: functional; details: MF5668, 24 h, read-out: MEC
Candida albicans [2] = assay: Antifungal activity against Candida albicans MY1055 after 24 hrs by liquid microdilution assay in presence of human serum; format: functional; details: MY1055, 24 h
Mus musculus = assay: Dose normalized AUC in orally dosed mouse; format: ADME, organism-based; details: in vivo, po
[3] = Oral bioavailability in mouse; format: ADME, organism-based; details: in vivo
Candida albicans [4] = assay: Antifungal activity against Candida albicans MY1055 in DBA/2 mouse candidiasis model assessed as change in CFU per gram of kidney at 25 mg/kg, po bid after 4 days by Target Organ Kidney Assay relative to sham treated control; format: functional
Candida albicans [5] = assay: Antifungal activity against Candida albicans MY1055 in DBA/2 mouse candidiasis model assessed as change in CFU per gram of kidney at 12.5 mg/kg, po bid after 4 days by Target Organ Kidney Assay relative to sham treated control; format: functional
Candida albicans [6] = assay: Antifungal activity against Candida albicans MY1055 in DBA/2 mouse candidiasis model assessed as change in CFU per gram of kidney at 6.25 mg/kg, po bid after 4 days by Target Organ Kidney Assay relative to sham treated control; format: functional

IC50 (Beta-1,3-glucan synthase)	MIC (Candida albicans [1])	MIC (Candida albicans [2])	AUC/dose (Mus musculus)	bioavailability [3]	Structure (SMILES)	minimal effective concentration (Aspergillus fumigatus)	Activity (Candida albicans [4])	Activity (Candida albicans [5])	Activity (Candida albicans [6])
1410 nM	> 32 µg/mL	> 32 µg/mL			CC(C)[C@@H](C)[C@@]1(C)CC[C@]2(C)[C@H]3CC[C@H]4C5(C)COC[C@@]4(C[C@@H](n4nccn4)[C@@H]5O[C@@H]4O[C@H](CO)[C@@H](O)[C@H](O)[C@H]4O)C3=CC[C@@]2(C)[C@@H]1C(=O)O	0.5 µg/mL			
1200 nM	32 µg/mL (≈ 42.6 µM)	> 32 µg/mL			CC(C)[C@@H](C)[C@@]1(C)CC[C@]2(C)[C@H]3CC[C@H]4C5(C)COC[C@@]4(C[C@@H](n4cc6ccccc6n4)[C@@H]5O[C@@H]4O[C@H](CO)[C@@H](O)[C@H](O)[C@H]4O)C3=CC[C@@]2(C)[C@@H]1C(=O)O	2 µg/mL			
86.1 nM	0.25 µg/mL (≈ 0.359 µM)	16 µg/mL			CC(=O)Nc1nnn([C@@H]2C[C@@]34COCC(C)([C@H]2OC[C@](C)(N)C(C)C)[C@@H]3CC[C@H]2C4=CC[C@@]3(C)[C@H](C(=O)O)[C@@](C)([C@H](C)C(C)C)CC[C@]23C)n1	< 0.03 µg/mL			
81.8 nM	8 µg/mL (≈ 11.5 µM)	> 32 µg/mL			CC(=O)Nc1nnnn1[C@@H]1C[C@@]23COCC(C)([C@H]1OC[C@](C)(N)C(C)C)[C@@H]2CC[C@H]1C3=CC[C@@]2(C)[C@H](C(=O)O)[C@@](C)([C@H](C)C(C)C)CC[C@]12C	< 0.03 µg/mL			
24.5 nM	1 µg/mL (≈ 1.53 µM)	> 32 µg/mL			Cc1nnn([C@@H]2C[C@@]34COCC(C)([C@H]2OC[C@](C)(N)C(C)C)[C@@H]3CC[C@H]2C4=CC[C@@]3(C)[C@H](C(=O)O)[C@@](C)([C@H](C)C(C)C)CC[C@]23C)n1	0.5 µg/mL			
56.5 nM	4 µg/mL (≈ 6.11 µM)	> 32 µg/mL			CC(C)[C@@H](C)[C@@]1(C)CC[C@]2(C)[C@H]3CC[C@H]4C5(C)COC[C@@]4(C[C@@H](n4nnnc4N)[C@@H]5OC[C@](C)(N)C(C)C)C3=CC[C@@]2(C)[C@@H]1C(=O)O	0.25 µg/mL			
578 nM	2 µg/mL (≈ 2.75 µM)	32 µg/mL			CC(C)[C@@H](C)[C@@]1(C)CC[C@]2(C)[C@H]3CC[C@H]4C5(C)COC[C@@]4(C[C@@H](Oc4ccccc4)[C@@H]5O[C@@H]4O[C@H](CO)[C@@H](O)[C@H](O)[C@H]4O)C3=CC[C@@]2(C)[C@@H]1C(=O)O	0.125 µg/mL			
1410 nM	> 32 µg/mL	> 32 µg/mL			CC(C)[C@@H](C)[C@@]1(C)CC[C@]2(C)[C@H]3CC[C@H]4C5(C)COC[C@@]4(C[C@@H](n4ccc6ccccc64)[C@@H]5O[C@@H]4O[C@H](CO)[C@@H](O)[C@H](O)[C@H]4O)C3=CC[C@@]2(C)[C@@H]1C(=O)O	4 µg/mL			
9.52 nM	0.5 µg/mL (≈ 0.794 µM)	> 32 µg/mL	1.38 µM·kg·h/mg	39%	CC(=O)O[C@@H]1C[C@@]23COCC(C)([C@H]1OC[C@](C)(N)C(C)C)[C@@H]2CC[C@H]1C3=CC[C@@]2(C)[C@H](C(=O)O)[C@@](C)([C@H](C)C(C)C)CC[C@]12C	0.06 µg/mL	-2.2 deltalog10CFU	-0.6 deltalog10CFU	-0.6 deltalog10CFU
634 nM	2 µg/mL (≈ 2.7 µM)	> 32 µg/mL			COc1ccc([C@@H]2C[C@@]34COCC(C)([C@H]2O[C@@H]2O[C@H](CO)[C@@H](O)[C@H](O)[C@H]2O)[C@@H]3CC[C@H]2C4=CC[C@@]3(C)[C@H](C(=O)O)[C@@](C)([C@H](C)C(C)C)CC[C@]23C)cc1	0.25 µg/mL			
	4 µg/mL (≈ 5.7 µM)	> 32 µg/mL			CC(C)[C@@H](C)[C@@]1(C)CC[C@]2(C)[C@H]3CC[C@H]4C5(C)COC[C@@]4(C[C@@H](n4cnnc4)[C@@H]5O[C@@H]4O[C@H](CO)[C@@H](O)[C@H](O)[C@H]4O)C3=CC[C@@]2(C)[C@@H]1C(=O)O	1 µg/mL			
74.8 nM	1 µg/mL (≈ 1.66 µM)	32 µg/mL	1.22 µM·kg·h/mg	37%	CC(=O)O[C@@H]1C[C@@]23COCC(C)([C@H]1OCC(C)(C)N)[C@@H]2CC[C@H]1C3=CC[C@@]2(C)[C@H](C(=O)O)[C@@](C)([C@H](C)C(C)C)CC[C@]12C	< 0.03 µg/mL	-1.4 deltalog10CFU		
> 14200 nM	> 32 µg/mL	> 32 µg/mL			CC(C)[C@@H](C)[C@@]1(C)CC[C@]2(C)[C@H]3CC[C@H]4C5(C)COC[C@@]4(C[C@@H](n4ccnn4)[C@@H]5O[C@@H]4O[C@H](CO)[C@@H](O)[C@H](O)[C@H]4O)C3=CC[C@@]2(C)[C@@H]1C(=O)O	2 µg/mL			
22.2 nM	0.25 µg/mL (≈ 0.397 µM)	16 µg/mL	0.73 µM·kg·h/mg	31%	CC(=O)O[C@@H]1C[C@@]23COCC(C)([C@H]1OC[C@@](C)(N)C(C)C)[C@@H]2CC[C@H]1C3=CC[C@@]2(C)[C@H](C(=O)O)[C@@](C)([C@H](C)C(C)C)CC[C@]12C	< 0.03 µg/mL	-1.9 deltalog10CFU	-0.1 deltalog10CFU	-0.5 deltalog10CFU
813 nM	2 µg/mL (≈ 2.85 µM)	> 32 µg/mL			CC(C)[C@@H](C)[C@@]1(C)CC[C@]2(C)[C@H]3CC[C@H]4C5(C)COC[C@@]4(C[C@@H](n4cccn4)[C@@H]5O[C@@H]4O[C@H](CO)[C@@H](O)[C@H](O)[C@H]4O)C3=CC[C@@]2(C)[C@@H]1C(=O)O	0.06 µg/mL			
71.9 nM	8 µg/mL (≈ 12.2 µM)	> 32 µg/mL			Cc1nnnn1[C@@H]1C[C@@]23COCC(C)([C@H]1OC[C@](C)(N)C(C)C)[C@@H]2CC[C@H]1C3=CC[C@@]2(C)[C@H](C(=O)O)[C@@](C)([C@H](C)C(C)C)CC[C@]12C	4 µg/mL			
342 nM	2 µg/mL (≈ 2.85 µM)	32 µg/mL			CC(C)[C@@H](C)[C@@]1(C)CC[C@]2(C)[C@H]3CC[C@H]4C5(C)COC[C@@]4(C[C@@H](n4cncn4)[C@@H]5O[C@@H]4O[C@H](CO)[C@@H](O)[C@H](O)[C@H]4O)C3=CC[C@@]2(C)[C@@H]1C(=O)O	0.125 µg/mL			
14.1 nM	16 µg/mL (≈ 22.5 µM)	32 µg/mL	0.74 µM·kg·h/mg	30%	CCCCN[C@@](C)(CO[C@H]1[C@H](n2nnc(N)n2)C[C@@]23COCC1(C)[C@@H]2CC[C@H]1C3=CC[C@@]2(C)[C@H](C(=O)O)[C@@](C)([C@H](C)C(C)C)CC[C@]12C)C(C)C	0.125 µg/mL	-2.6 deltalog10CFU	-1.2 deltalog10CFU	-0.1 deltalog10CFU
> 1330 nM	32 µg/mL (≈ 42.6 µM)	> 32 µg/mL			CC(C)[C@@H](C)[C@@]1(C)CC[C@]2(C)[C@H]3CC[C@H]4C5(C)COC[C@@]4(C[C@@H](n4ncc6ccccc64)[C@@H]5O[C@@H]4O[C@H](CO)[C@@H](O)[C@H](O)[C@H]4O)C3=CC[C@@]2(C)[C@@H]1C(=O)O	8 µg/mL			
